Data on two molecules can be found in patent US11965159B2, “Compositions and methods for regulating proteins and nucleic acids activities” (THE BROAD INSTITUTE, INC., priority 2019, dated 2024).

For one series, the system named is S. aureus RN4220. Kind of series: Toxicity study of compounds in bacterial culture (absence of phage). The format is cell-based. Conditions: 20 μM, 16 h, no phage. How it is done: FIG. 79. Toxicity study of compounds in bacterial culture. Bacterial growth study in the presence of the compound. Bacterial cell S. aureus RN4220 strain was allowed to grow either in the presence of DMSO or 20 μM of compound BRD7087 or BRD5779 over 16 h. The experiment was performed in three technical replicates.
Bacterial study. Plasmid pRH248 harboring SpCas9, tracrRNA and a single-spacer array ([…]) (SEQ ID NO:7) targeting phage DNM474 was constructed via BsaI cloning onto pDB114 as described in Heler et al 6. Plate reader growth curves of bacteria infected with phage were conducted as described previously with minor modifications 7. Overnight cultures were diluted 1:100 into 2 ml of fresh BHI supplemented with appropriate antibiotics and 5 mM CaCl2) and grown to an OD600 of ˜0.2. Immune cells carrying pRH248 were diluted with cells lacking CRISPR-Cas in a 1:10,000 ratio. […] To produce plate reader growth curves, 200 μL of infected cultures, normalized for OD600, were transferred to a 96-well plate in triplicate. […]
Bacterial study. […] Plate reader growth curves of bacteria infected with phage were conducted as described previously with minor modifications^7. […] To produce plate reader growth curves, 200 μL of infected cultures, normalized for OD600, were transferred to a 96-well plate in triplicate. […]

Series [1] has as its target T1, dCas9-cytidine deaminase conjugate (BE3) (UniProt P14739+P38483+Q99ZW2, D10A).
T1 construct: His6 (N); made in house; host or cells: E. coli BL21 Star (DE3); purified protein lipofected as BE3:gRNA RNP into HEK293T cells
Kind of series: BE3 base-editing of EMX1 gene in HEK293T cells. The format is cell-based. Particulars: 1.25-20 μM, 72 h; BE3:gRNA ribonucleoprotein delivery. The method, then:
Protein transfection of base editor BE3 into HEK293T cells. HEK293T cells were seeded on 48-well BioCoat® poly-D-lysine plates (Corning®) in 250 μL of antibiotic-free medium and transfected at ˜70% confluency. Prior to protein transfection, cells were incubated with 2 μL of DMSO-suspended BRD7087 or BRD5779 at the indicated concentration for 2-3 hours. BE3 protein was incubated with 1.1× molar excess of EMX1-targeting sgRNA at a final concentration ratio of 200 nM: 220 nM (based on a total well volume of 275 μL). The complex was mixed with 0.2 μL of compound for five minutes, incubated with 1.5 μL Lipofectamine™ 2000 (THERMOFISHER) and transfected according to the manufacturer's protocol plasmid delivery. […]
Purifications and sequencing of genomic DNA. […] Barcoded samples were pooled and purified by gel extraction (QIAGEN) before quantification using the Qubit™ dsDNA HS Kit (THERMOFISHER) and qPCR (KAPA BioSystems) according to the manufacturer's instructions. Sequencing of pooled samples was performed using a single-end read from 260 to 300 bases on the MiSeq™ ([…]) according to the manufacturer's instructions.
Analysis of base-edited sequences. Nucleotide frequencies were analyzed using a previously described MATLAB script 5. Briefly, the reads were aligned to the reference sequence via the Smith-Waterman algorithm. […]

The structures appear in SMILES notation.

Regarding `COc1ccc(-c2ccc3c(c2)[C@H]2[C@H](CCN2Cc2ccncc2)[C@@H](CO)N3)cc1` [BRD5779, ((3aR,4S,9bR)-8-(4-Methoxyphenyl)-1-(pyridin-4-ylmethyl)-2,3,3a,4,5,9b-hexahydro-1H-pyrrolo[3,2-c]quinolin-4-yl)methanol], in the series with S. aureus RN4220, the “toxicity to bacteria in the presence of inhibitor alone” value is reported as “non-toxic in the absence of phage”. For the same molecule, the “inhibition of BE3-mediated base-editing (C→T conversion, EMX1)” value in series [1] was “efficient and dose-dependent inhibition”.

For `OC[C@H]1Nc2ccc(-c3cccc(F)c3)cc2[C@H]2[C@@H]1CCN2Cc1ccncc1` [BRD7087, ((3aR,4S,9bR)-8-(3-Fluorophenyl)-1-(pyridin-4-ylmethyl)-2,3,3a,4,5,9b-hexahydro-1H-pyrrolo[3,2-c]quinolin-4-yl)methanol], the “toxicity to bacteria in the presence of inhibitor alone” value in the series with S. aureus RN4220 was “non-toxic in the absence of phage”. Further, the “inhibition of BE3-mediated base-editing (C→T conversion, EMX1)” value in series [1] was “efficient and dose-dependent inhibition”.
